Where a SMILES comes first, the peptide text is derived from it. The star is where a group is joined. Cbz = O=C(OCc1ccccc1)*

This is an account of results in patent US7858578B2, “Methods of inducing neuronal growth by a Fucose-α(1-2) galactose (fuc-α(1-2) gal) moiety and a lectin” (California Institute of Technology, priority 2004, dated 2010).

Assay [1] deals with binding of antibody A46-B/B10 to bovine synapsin I. The assay is described as follows: Competition ELISA. The following applies: competitors 0.078-5 mM. The protocol:
To gain insight into the structural determinants recognized by antibody A46-B/B10, competition enzyme-linked immunosorbent assay (ELISA) experiments were performed using a series of fucose analogs (FIG. 12 A, B). Purified bovine synapsin Ia/Ib (Ueda, T., et al., J. Biol. Chem., 252:5155-5163 (1977)) was a supplied by Drs. P. Greengard and A. Nairn (The Rockefeller University, New York, N.Y.). The protein was immobilized on a microtiter plate by incubation in 50 mM NaHCO3, pH 9.0 at 4° C. overnight. Antibody A46-B/B10 (0.02 mg/mL) and the competitors (0.078-5 mM) were incubated in TBST (50 mM Tris-HCl pH 7.4, 150 mM NaCl, 0.1% Tween-20) at 4° C. overnight and then transferred to the microtiter plate. The wells were washed with TBST and incubated with a goat anti-mouse secondary antibody conjugated to alkaline phosphatase (1:500) at rt for 1 h. The wells were washed with TBST and developed with p-nitrophenyl phosphate. Inhibition curves were generated using PRISM (GraphPAD Software, Inc.).
Synapsin Ia and Ib from bovine brain were immobilized on a microtiter plate, and binding of antibody A46-B/B10 to synapsin was assessed in the presence of varying concentrations of the competitors (see FIG. 12A for structures of the competitor molecules). […] (Haselhorst, T., et al., J. Am. Chem. Soc., 123:10705-10714 (2001))

Assay [2] relates to synapsin I-transfected HeLa cells. The assay is described as follows: Synapsin degradation with inhibitors of protein degradation with or without 2-dGal. It counts as cell-based. The following applies: with 2-dGal, 15 h. The method, then:
(§1) FIG. 19. Inhibition of synapsin fucosylation using 2-dGal decreases the expression and half-life of synapsin I. (A) Effects of 2-dGal and 6-dGal on synapsin fucosylation (left panel) and synapsin expression (right panel) levels. Synapsin I-transfected HeLa cells were treated with the indicated amounts of the deoxy sugar for 24 h. Fucosylation and synapsin expression levels were measured by immunoblotting with antibody A46-B/B10 and an anti-synapsin antibody, respectively. […] Synapsin I-transfected HeLa cells were treated with 2-dGal or a vehicle control (PBS), pulse labeled with ^35S-L-cysteine and ^35S-L-methionine as described in Materials and Methods, and chased for the indicated times. ^35S-labeled synapsin levels were measured by autoradiography. (C) Inhibition of the calcium-activated protease calpain using a calpain inhibitor peptide or calpeptin protects synapsin from degradation. […] Synapsin I-transfected HeLa cells were treated with the indicated inhibitors or vehicle control (DMSO, PBS or MeOH) in the presence or absence of 2-dGal for 15 h. Following lysis, the cell extracts were analyzed for synapsin expression levels by immunoblotting.
To investigate the molecular mechanisms responsible for synapsin degradation, cells expressing synapsin were treated with various inhibitors of protein degradation in the presence or absence of 2-dGal. Specifically, the lysosomal inhibitors bafilomycin A1 and ammonium chloride, the proteasome inhibitor MG132, and two inhibitors of the calcium-dependent protease calpain, were used.

Assay [3] relates to synapsin I expressed in HeLa cells. The assay is described as follows: Synapsin fucosylation and expression in synapsin I-transfected HeLa cells (immunoblotting). The format is cell-based. The following applies: deoxy sugar for 24 h. The protocol: as §1
The effects of 2-dGal on synapsin I expressed in HeLa cells were next investigated. Cell lysates containing equivalent amounts of transfected protein were resolved by SDS-PAGE, and the fucosylation and protein levels of synapsin were measured by immunoblotting, using methods described above.

The test system of the next assay is E18 cortical neurons. The assay is described as follows: Expression of synaptic proteins in cultured neurons (Western blotting). It counts as cell-based. The following applies: 15 mM for 3 days, neurons 7 DIV. The protocol:
FIG. 20. […] (A) E18 cortical neurons cultured for 7 DIV were treated with 15 mM of 2-dGal or 6-dGal for 3 days. Protein lysates were analyzed by Western blotting using antibodies selective for the indicated proteins. A significant reduction in the expression of synapsin Ib was observed, while other synapse-associated proteins were unaffected by the 2-dGal treatment. (B) Neurite retraction caused by 2-dGal is reduced in synapsin-deficient mice. Neurons from synapsin I-deficient or wild-type mice were cultured for 2 days, treated with 2-dGal for 3 days, and analyzed for mean neurite length.
To examine the effects of 2-dGal on synapsin fucosylation in neurons, neurons were cultured for 7 DIV to allow for adequate expression of synapsin and subsequently treated with 2-dGal or 6-dGal for comparison. Cells were lysed and immunoblotted as described above. […] The expression of other synaptic proteins, including NSF, the synaptic vesicle protein synaptotagmin, the presynaptic plasma membrane protein syntaxin, and the postsynaptic proteins PSD-95, the AMPA receptor GluR1 subunit and spinophilin, was unchanged by the 2-dGal treatment.

The subject of assay [4] is hippocampal neurons. The assay is described as follows: Binding of biotinylated probe to cultured hippocampal neurons (streptavidin-AlexaFluor 488 imaging). It counts as cell-based, rat. The following applies: 3 mM, 10 μM PAO. The method, then:
Hippocampal neurons were cultured using a procedure modified from Goslin and Banker, in Culturing Nerve Cells, Banker, G., Goslin, K., Eds., pp. 251-281, MIT Press: Cambridge, Mass. 1991. Briefly, the hippocampi of embryonic day 18 (E18) rats were dissected and transferred to 4.5 mL of ice-cold Calcium and Magnesium Free-Hank's Balanced Salt Solution (CMF-HBSS). Trypsin (2.5%, no EDTA) was added to 5 mL, and the tissue was incubated for 15 min at 37° C. The trypsin solution was removed and the tissue sample washed three times with 5 mL of CMF-HBSS. Cells were then dissociated from the tissue in 1 mL of CMF-HBSS by passing through a P1000 pipet tip twenty times. The cells were counted, diluted into Minimal Eagle's Medium (MEM) plus 10% fetal bovine serum, and seeded on poly-DL-ornithine-coated glass coverslips (Carolina Biological) at a density of 75 cells/mm2 (100 μL/coverslip) for 30 min. After this time, 500 μL of supplemented Neurobasal medium (47.5 mL Neurobasal medium without Lglutamine; 0.5 mL L-glutamine (200 mM); 0.5 mL penicillin/streptomycin (10,000 U/mL); 0.5 mL antibiotic-antimycotic (100× stock), 1.0 mL B-27 serum-free supplement (50× stock); 50 μL of 0.5 M kynurenic acid in 1 N NaOH) was added to each coverslip. The use of kynurenic acid to block glutamate receptor ion channels and enhance neuronal health and survival is standard protocol for neuronal cultures. Id. The cultures were maintained in 5% CO2 at 37° C. in supplemental Neurobasal medium.
After 23 days in culture, the medium was replaced, and neurons were treated with the endocytosis inhibitor phenylarsine oxide (PAO; 4 μL in DMSO, final concentration 10 μM) (Nouel, D., et al., J. Neurosci. 17:1795-1803 (1997)) and either compound III (24 μL in PBS, final concentration 3 mM), or biotin (24 μL in PBS, final concentration 3 mM), in supplemented Neurobasal medium (400 μL final volume) for 1 h at 37° C., 5% CO2. After 1 h, neurons were rinsed 2 times with PBS, fixed in 4% paraformaldehyde for 20 min at rt, washed 2 times with PBS, permeabilized in 0.3% Triton X-100 for 5 min at rt, and washed 2 times with PBS. Non-specific binding was blocked with 3% BSA for 1 h at rt and then rinsed one time with PBS. Compound III was detected with streptavidin conjugated to AlexaFluor 488 (1:200, Molecular Probes). Dye-conjugated streptavidin was added in 3% BSA for 1 h at 37° C. and the excess reagent washed off 5 times with PBS. Coverslips were then mounted onto slides with Vectashield, sealed, and imaged using confocal laser microscopy. Results can be seen in FIG. 2.
De-lipidation was performed on some samples following the protocol of Yavin, E. et al., J. Neurosci. Res. 9:229-237 (1983). Briefly, after 23 days in culture, cells were rinsed once with PBS then exposed to MeOH/CHCl3 (½ by vol.) for 15 min at −80° C. This procedure fixes the cells to the coverslip and extracts cellular lipids. After removing the MeOH/CHCl3 mixture, coverslips were dried at rt then incubated with 3% BSA for 1 hr at rt. After one rinse with PBS, neurons were treated with PAO and the procedure described above was followed.

In a further assay the test system is hippocampal slices. The note with it: cited from earlier work.
In assay [5] the test system is hippocampal neurons. The assay is described as follows: Effects of deoxy-galactose sugars on neuronal morphology (anti-tau immunostaining). The format is cell-based, rat. The note with it: for rescue of 2-dGal effects: 75 mM Gal for 2 days after 15 mM 2-dGal for 2 days. The protocol: Hippocampal neurons were plated on poly-DL-ornithine-coated glass coverslips as described above. After one day in culture, the medium was replaced with fresh medium, and the small molecules (2-dGal, 3-Deoxy-D-Galactose (3-dGal), or D-Galactose (Gal)) were added. A dose-response experiment was initially performed to determine the minimum concentration of 2-dGal needed to elicit an effect. Neurons were treated with varying concentrations of 2-dGal (1, 5, 10, 15, or 30 mM in 25 μL PBS with 475 μL of supplemented Neurobasal medium) for 2 days before immunostaining with anti-tau antibodies as described above.
Cells were treated as above under 4 different conditions: (1) no treatment for 2 days, (2) incubation with 15 mM 2-dGal for 2 days, (3) incubation with 15 mM 2-dGal for 2 days followed by incubation with 75 mM Gal for 2 days, or (4) incubation with 15 mM 3-dGal for 2 days. After adding the small molecules, cultures were incubated at 37° C., 5% CO2, then washed once with PBS, and immunostained with anti-tau antibody as described above.

Consider `CCO[C@@H]1O[C@H](CO)[C@H](O)[C@H](O)[C@H]1O[C@@H]1O[C@@H](C)[C@@H](O)[C@@H](O)[C@@H]1O` [Fucα(1-2)Gal-β-OEt, Ethyl O-(α-L-fucopyranosyl)-(1-2)-β-D-galactopyranoside], for which the “inhibition of antibody binding to synapsin Ia and Ib” value (“inhibition of antibody binding” for short) in assay [1] is recorded as “selectively inhibited”. `CO/C1=C\C(C)=C\[C@@H](C)[C@@H](O)[C@@H](C)C/C(C)=C/C=C/[C@H](OC)[C@@H]([C@@H](C)[C@@H](O)[C@H](C)[C@@]2(O)C[C@@H](O)[C@H](C)[C@@H](C(C)C)O2)OC1=O` [bafilomycin A1]: in assay [2], the “rescue of synapsin from 2-dGal-induced degradation” value (from here on “rescue of synapsin”) is “no effect on synapsin degradation”. As for `C[C@@H](O)[C@H](O)[C@H](O)[C@@H](O)C=O` [Compound 6-dGal, 6-deoxy-D-galactose], in assay [3], the “fucosylation level of synapsin” value was “no effect” and the “level of synapsin protein” value was “no effect”. Also, the “expression of synapsin I” value with E18 cortical neurons is reported as “no effect”. For `O=C(O)CCCC[C@@H]1SC[C@@H]2NC(=O)N[C@@H]21` [biotin], the “labeling of neurons after de-lipidation” value with hippocampal neurons [4] (neurons de-lipidated with MeOH/CHCl3) is reported as “minor binding of the biotin alone to the cell body but not the neurites”. Moreover, the “binding to hippocampal neurons” value in the assay on hippocampal neurons [4] (1 h, E18 neurons 23 days in vitro) is “this binding is not between the biotin moieties and the neuron”.

For `CC(C)C[C@@H](C=O)NC(=O)[C@H](CC(C)C)NC(=O)[C@H](CC(C)C)NC(=O)OCc1ccccc1` [MG132] (Cbz-Leu-Leu-Leu-aldehyde), in assay [2], the “rescue of synapsin” value is reported as “no effect on synapsin degradation”. Same read-out and setting: next, `Cl.N` [ammonium chloride]: “no effect on synapsin degradation”. Turning to `CCOC1OC(C)C(O)C(O)C1O` [L-Fuc-α-OEt, ethyl α/β-L-fucopyranoside], in assay [1], the “IC50 (compared in words)” value is reported as “comparable to that of the disaccharide Fucα(1-2)Gal-β-OEt”; the “inhibition of antibody binding” value is reported as “effective at inhibiting antibody binding”.

As for 2′fucosyllactose, the “effect on LTP” value with hippocampal slices was “enhance LTP”. Turning to `CC(=O)N[C@H]1C(O)O[C@H](CO)[C@@H](O)[C@@H]1O` (stereo partly drawn) [N-acetyl-D-glucosamine], the “inhibition of antibody binding” value in assay [1] is “did not compete”. For the molecule `O=C[C@H](O)[C@@H](O)[C@@H](O)[C@H](O)CO` [Gal, D-Galactose], the “rescue of 2-dGal effects” value is given as “rescued” in the assay with hippocampal neurons [5] and “regeneration of the neuronal processes” in the assay on hippocampal neurons [5] (listed as D-galactose). Also, the “inhibition of antibody binding” value in assay [1] is on record as “did not compete”.

Consider `O=C[C@H](O)C[C@@H](O)[C@H](O)CO` [Compound 3-dGal, 3-Deoxy-D-Galactose], for which the “effect on neurite outgrowth” value with hippocampal neurons [5] (15 mM for 2 days) was “no impact on neurite outgrowth”. As to `C[C@H](O)[C@@H](O)[C@@H](O)[C@H](O)C=O` [L-fucose], in assay [1], the “IC50 (compared in words)” value is “comparable to that of the disaccharide Fucα(1-2)Gal-β-OEt”; the “inhibition of antibody binding” value is “effective at inhibiting antibody binding”. In addition, in the assay with hippocampal slices, the “effect on LTP” value was “enhance LTP”. With `CCCC[C@@H](C=O)NC(=O)[C@H](CC(C)C)NC(=O)OCc1ccccc1` [calpeptin], the “rescue of synapsin” value in assay [2] is “rescued the effects of 2-dGal”.

With `O=C[C@H](O)[C@@H](O)[C@H](O)[C@H](O)CO` [D-glucose], the “inhibition of antibody binding” value in assay [1] is “did not compete”.
